Patent US20120065187A1 (ALCON RESEARCH, LTD, priority 2008, published 2012)
Structures can show the parent of a compound that is named as a salt. Where two headings read alike, the source gives them in different places.

How the values were obtained:
human H4 = target: T1, human H4 (Homo sapiens, UniProt Q9H3N8); assay: In vitro histamine receptor cell-based assay (aequorin bioluminescence), H4 antagonism
T1 construct: host or cells: CHO-K1
How it was run: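 Antagonism read as loss of aequorin luminescence after histamine (EC80 final) addition, following 15 min room-temperature compound pretreatment of coelenterazine-h-loaded (5 μM) CHO-K1 cells co-expressing human H4 and Gα16. Efficacy given relative to 10 μM JNJ7777120; agonism excluded in separate no-histamine runs.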

human H1 = target: T2, human H1 (Homo sapiens, UniProt P35367); assay: In vitro histamine receptor cell-based assay (aequorin bioluminescence), H1 antagonism; details: CHO-K1 cells expressing human H1 and aequorin; histamine at EC80; read-out: H1 Antagonist EC50
T2 construct: host or cells: CHO-K1
T2 sequence (P35367 whole entry): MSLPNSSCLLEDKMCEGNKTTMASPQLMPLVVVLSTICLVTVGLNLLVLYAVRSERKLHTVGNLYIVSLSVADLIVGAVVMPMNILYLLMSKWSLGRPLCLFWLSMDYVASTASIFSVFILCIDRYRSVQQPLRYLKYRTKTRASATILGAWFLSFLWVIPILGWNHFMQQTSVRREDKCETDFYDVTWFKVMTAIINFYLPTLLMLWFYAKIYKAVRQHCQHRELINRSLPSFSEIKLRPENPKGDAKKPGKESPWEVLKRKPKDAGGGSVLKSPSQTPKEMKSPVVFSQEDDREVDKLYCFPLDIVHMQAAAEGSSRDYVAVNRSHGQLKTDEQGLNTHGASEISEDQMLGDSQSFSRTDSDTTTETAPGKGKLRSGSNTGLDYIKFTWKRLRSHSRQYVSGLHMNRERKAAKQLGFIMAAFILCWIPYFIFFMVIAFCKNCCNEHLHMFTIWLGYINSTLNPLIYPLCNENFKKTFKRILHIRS
How it was run: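 Antagonism read as drop in aequorin luminescence after histamine challenge at a predetermined EC80, following 15 min compound pretreatment at room temperature. Cells: CHO-K1 carrying human H1, or H4 with Gα16; signal as AUC or amplitude, normalised to 10 μM diphenhydramine (H1) or JNJ7777120 (H4).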

[1] = CHO-K1 cells expressing human H4, aequorin and Gα16, histamine at EC80, read-out: H4 Antagonist EC50

EC50 (human H4; [1]) [µM] | EC50 (human H1) [µM] | SMILES | EC50 (human H4) [µM]
< 10 | > 10 | FC(F)(F)c1ccc2nc(N3CCNCC3)c3nccn3c2c1 [Example 178, 4-(piperazin-1-yl)-8-(trifluoromethypimidazo[1,2-a]quinoxaline hydrochloride] | –
< 10 | > 10 | CN1CCN(c2nc3cc(F)c(Cl)cc3n3ccnc23)CC1 [Example 179] | –
< 10 | < 10 | Fc1cc2nc(N3CCNCC3)c3nccn3c2cc1Cl [Example 180, 8-chloro-7-fluoro-4-(piperazin-1-yl)imidazo[1,2-a]quinoxaline] | –
< 10 | > 10 | CN1CCN(c2nc3cc(F)c(F)cc3n3ccnc23)CC1 [Example 181, 7,8-difluoro-4-(4-methylpiperazin-1-yl)imidazo[1,2-a]quinoxaline] | –
< 10 | < 10 | Fc1cc2nc(N3CCNCC3)c3nccn3c2cc1F [Example 182, 7,8-difluoro-4-(piperazin-1-yl)imidazo[1,2-a]quinoxaline] | –
< 10 | > 10 | Fc1cc2nc(N3CCNCC3)c3nncn3c2cc1Br [Example 184, 8-bromo-7-fluoro-4-(piperazin-1-yl)-[1,2,4]triazolo[4,3-a]quinoxaline] | –
< 10 | > 10 | CN1CCN(c2nc3cc(F)c(Br)cc3n3cnnc23)CC1 [Example 185, 8-bromo-7-fluoro-4-(4-methylpiperazin-1-yl)-[1,2,4]triazolo[4,3-a]quinoxaline] | –
< 10 | > 10 | Fc1cc2nc(N3CCNCC3)c3nnnn3c2cc1C(F)(F)F [Example 186, 7-fluoro-4-(piperazin-1-yl)-8-(trifluoromethyl)tetrazolo[1,5-a]quinoxaline] | –
< 10 | > 10 | CN1CCN(c2nc3cc(F)c(C(F)(F)F)cc3n3nnnc23)CC1 [Example 187, 7-fluoro-4-(4-methylpiperazin-1-yl)-8-(trifluoromethyl)tetrazolo[1,5-a]quinoxaline] | –
< 10 | > 10 | Fc1cc2nc(N3CCNCC3)c3nnnn3c2cc1Cl [Example 188, 8-chloro-7-fluoro-4-(piperazin-1-yl)tetrazolo[1,5-a]quinoxaline] | –
< 10 | > 10 | CN1CCN(c2nc3cc(F)c(Cl)cc3n3nnnc23)CC1 [Example 189, 8-chloro-7-fluoro-4-(4-methylpiperazin-1-yl)tetrazolo[1,5-a]quinoxaline] | –
< 10 | > 10 | CN1CCN(c2nc3cc(F)c(F)cc3n3nnnc23)CC1 [Example 190, 7,8-difluoro-4-(4-methylpiperazin-1-yl)tetrazolo[1,5-a]quinoxaline] | –
< 10 | > 10 | Fc1cc2nc(N3CCNCC3)c3nnnn3c2cc1F [Example 191, 7,8-difluoro-4-(piperazin-1-yl)tetrazolo[1,5-a]quinoxaline] | –
> 10 | > 10 | Fc1cc(Cl)cc2nc(N3CCNCC3)c3nncn3c12 [Example 192, 7-chloro-9-fluoro-4-(piperazin-1-yl)-[1,2,4]triazolo[4,3-a]quinoxaline] | –
< 10 | > 10 | CN1CCN(c2nc3cc(Br)ccc3n3cnnc23)CC1 [Example 193, 7-bromo-4-(4-methylpiperazin-1-yl)-[1,2,4]triazolo[4,3-a]quinoxaline] | –
< 10 | > 10 | Brc1ccc2c(c1)nc(N1CCNCC1)c1nnnn12 [Example 194, 7-bromo-4-(piperazin-1-yl)tetrazolo[1,5-a]quinoxaline hydrochloride] | –
< 10 | > 10 | CN1CCN(c2nc3cc(Br)ccc3n3nnnc23)CC1 [Example 195, 7-bromo-4-(4-methylpiperazin-1-yl)tetrazolo[1,5-a]quinoxaline] | –

SMILES | EC50 (human H4; [1]) [µM] | EC50 (human H1) [µM] | EC50 (human H4) [µM]
FC(F)(F)c1ccc2c(c1)nc(N1CCNCC1)c1nccn12 [Example 183, 4-(piperazin-1-yl)-7-(trifluoromethyl)imidazo[1,2-a]quinoxaline hydrochloride] | – | > 10 | > 10
